Laboratory results: patent US20120190752A1, “EXO-S-MECAMYLAMINE METHOD, USE, AND COMPOUND FOR TREATMENT” (Targacept Inc., priority 2009, published 2012)

Tested on: subjects with major depressive disorder (MDD) who were inadequate responders to citalopram
Experiment: HAMD-17 total score, Phase 2b trial of TC-5214 as add-on to citalopram
Format: in vivo, human
Description: The Hamilton Rating Scale for Depression (HRSD), also known as the Hamilton Depression Rating Scale (HDRS) or abbreviated to HAM-D or HAMD, is a multiple choice questionnaire that clinicians may use to rate the severity of a patient's major depression (Hamilton 1967). The questionnaire rates the severity of symptoms observed in depression such as low mood, insomnia, agitation, anxiety and weight loss. The questionnaire is presently one of the most commonly used scales for rating depression in medical research. The clinician chooses the possible responses to each question by interviewing the patient and by observing the patient's symptoms. Each question has multiple possible responses which increase in severity. Although Hamilton's original scale had 17 questions, others later developed HRSD scales with different numbers of questions, the greatest of which is 29 (HRSD-29). Clinicians can use the HRSD in place of, or in conjunction with, the Montgomery-Åsberg Depression Rating Scale (MADRS), the Beck Depression Inventory (BDI), the Zung Self-Rating Depression Scale, the Wechsler Depression Rating Scale, the […] Depression Rating Scale, the Inventory of Depressive Symptomatology (IDS), the Quick Inventory of Depressive Symptomatology (QIDS), and other questionnaires. […] The results on all of the trial's secondary efficacy measures, including assessments of depression, irritability, disability, cognition, severity of illness and global improvement, were also statistically significant in favor of TC-5214 on an intent to treat basis. The Phase 2b trial of TC-5214 as an augmentation treatment for MDD was a two-phase trial conducted at 20 sites in India and three sites in the United States. In the first phase, 579 subjects with MDD received first-line treatment with citalopram hydrobromide for eight weeks, 20 mg daily for the first four weeks and 40 mg daily for the next four weeks. Citalopram, an approved treatment for MDD marketed in the United States as […]®, is from the drug class known as selective serotonin reuptake inhibitors. At the end of the eight weeks, subjects whose MADRS score had improved less than 50 percent and whose CGI-SI score was no lower than 4 were considered partial or non responders and randomized into the double blind second phase of the trial. In the double blind second phase, subjects continued their citalopram treatment and also received either add-on TC-5214 or add-on placebo for an additional eight weeks. The daily dosage of TC-5214 was initially 2 mg and could be increased at the discretion of the investigator to 4 mg and to 8 mg based on tolerability and therapeutic response. The primary outcome measure for the trial was mean change between TC-5214 and placebo from double blind baseline as measured by HAM-D at week 16. The intent to treat dataset included 265 subjects in the second phase. In more detail, a multi-center double-blind, randomized, placebo-controlled, parallel group, flexible dose titration study of TC-5214 as adjunctive therapy in subjects with major depressive disorder (MDD) who were inadequate responders to citalopram was conducted in centers in the US and India. The study consisted of a screening period, baseline/washout period, open-label phase, double-blind phase, and a follow-up visit. Subject participation in the study could continue for up to 16 weeks of treatment. Following a washout period of up to 28 days for other antidepressants, subjects with MDD and a MADRS total score >/=28 and a Clinical Global Impression-Severity (CGI-S) score >/=4 were enrolled on Day 1 into an open-label citalopram-only phase of the study. This phase lasted 8 weeks, with citalopram (CIT) dose increased from a once-daily dose of 20 mg (Day 1 through Week 4) to 40 mg (Week 4 through Week 8). A total of 579 subjects entered the open-label citalopram phase. […]

[1] = ITT and PP, at almost every assessment week, result in words
[2] = ITT, Double Blind Week 8 (Baseline), before TC-5214
[3] = ITT, Double Blind Week 18 (Follow-up)
[4] = ITT, Double Blind Week 18 LOCF (Follow-up)
[5] = ITT, Double Blind Week 18 LOCF (Follow-up), change from Week 16

## CNC1(C)C2CCC(C2)C1(C)C (stereo in doubt) [TC-5214, (S)—N,2,3,3-tetramethylnorbornan-2-amine]
ITT and PP populations, result in words
  HAMD-17 total score change from baseline compared with placebo: statistically significant decreases (improvements)
[1]
  HAMD responders (reduction from baseline ≧50%) proportion compared with placebo: higher proportion of responders
  HAMD-17 remission proportion compared with placebo: higher proportion of subjects in remission
[2]
  HAMD-17 total score, observed Mean: 23.5
  HAMD-17 total score, observed Median: 24.0
ITT, Double Blind Week 9
  HAMD-17 Remission (Score ≦7): Subjects with Remission (number): 1
  HAMD-17 Remission (Score ≦7): Subjects with Remission (percentage): (1%)
  HAMD-17 Remission (Score ≦7): Subjects without Remission (number): 132
  HAMD-17 Remission (Score ≦7): Subjects without Remission (percentage): (99%)
  HAMD-17 Remission (Score ≦10): Subjects with Remission (number): 4
  HAMD-17 Remission (Score ≦10): Subjects with Remission (percentage): (3%)
  HAMD-17 Remission (Score ≦10): Subjects without Remission (number): 129
  HAMD-17 Remission (Score ≦10): Subjects without Remission (percentage): (97%)
  HAMD-17 reduction from baseline ≧50%: Subjects with Response (number): 4
  HAMD-17 reduction from baseline ≧50%: Subjects with Response (percentage): (3%)
  HAMD-17 reduction from baseline ≧50%: Subjects without Response (number): 129
  HAMD-17 reduction from baseline ≧50%: Subjects without Response (percentage): (97%)
ITT, Double Blind Week 10
  HAMD-17 Remission (Score ≦7): Subjects with Remission (number): 6
  HAMD-17 Remission (Score ≦7): Subjects with Remission (percentage): (5%)
  HAMD-17 Remission (Score ≦7): Subjects without Remission (number): 127
  HAMD-17 Remission (Score ≦7): Subjects without Remission (percentage): (95%)
  HAMD-17 Remission (Score ≦10): Subjects with Remission (number): 20
  HAMD-17 Remission (Score ≦10): Subjects with Remission (percentage): (15%)
  HAMD-17 Remission (Score ≦10): Subjects without Remission (number): 113
  HAMD-17 Remission (Score ≦10): Subjects without Remission (percentage): (85%)
  HAMD-17 reduction from baseline ≧50%: Subjects with Response (number): 23
  HAMD-17 reduction from baseline ≧50%: Subjects with Response (percentage): (17%)
  HAMD-17 reduction from baseline ≧50%: Subjects without Response (number): 110
  HAMD-17 reduction from baseline ≧50%: Subjects without Response (percentage): (83%)
ITT, Double Blind Week 12
  HAMD-17 Remission (Score ≦7): Subjects with Remission (number): 20
  HAMD-17 Remission (Score ≦7): Subjects with Remission (percentage): (15%)
  HAMD-17 Remission (Score ≦7): Subjects without Remission (number): 113
  HAMD-17 Remission (Score ≦7): Subjects without Remission (percentage): (85%)
  HAMD-17 Remission (Score ≦10): Subjects with Remission (number): 40
  HAMD-17 Remission (Score ≦10): Subjects with Remission (percentage): (30%)
  HAMD-17 Remission (Score ≦10): Subjects without Remission (number): 93
  HAMD-17 Remission (Score ≦10): Subjects without Remission (percentage): (70%)
  HAMD-17 reduction from baseline ≧50%: Subjects with Response (number): 45
  HAMD-17 reduction from baseline ≧50%: Subjects with Response (percentage): (34%)
  HAMD-17 reduction from baseline ≧50%: Subjects without Response (number): 88
  HAMD-17 reduction from baseline ≧50%: Subjects without Response (percentage): (66%)
ITT, Double Blind Week 14
  HAMD-17 Remission (Score ≦7): Subjects with Remission (number): 37
  HAMD-17 Remission (Score ≦7): Subjects with Remission (percentage): (28%)
  HAMD-17 Remission (Score ≦7): Subjects without Remission (number): 96
  HAMD-17 Remission (Score ≦7): Subjects without Remission (percentage): (72%)
  HAMD-17 Remission (Score ≦10): Subjects with Remission (number): 60
  HAMD-17 Remission (Score ≦10): Subjects with Remission (percentage): (45%)
  HAMD-17 Remission (Score ≦10): Subjects without Remission (number): 73
  HAMD-17 Remission (Score ≦10): Subjects without Remission (percentage): (55%)
  HAMD-17 reduction from baseline ≧50%: Subjects with Response (number): 72
  HAMD-17 reduction from baseline ≧50%: Subjects with Response (percentage): (54%)
  HAMD-17 reduction from baseline ≧50%: Subjects without Response (number): 61
  HAMD-17 reduction from baseline ≧50%: Subjects without Response (percentage): (46%)
ITT, Double Blind Week 16
  HAMD-17 Remission (Score ≦7): Subjects with Remission (number): 52
  HAMD-17 Remission (Score ≦7): Subjects with Remission (percentage): (39%)
  HAMD-17 Remission (Score ≦7): Subjects without Remission (number): 81
  HAMD-17 Remission (Score ≦7): Subjects without Remission (percentage): (61%)
  HAMD-17 Remission (Score ≦10): Subjects with Remission (number): 83
  HAMD-17 Remission (Score ≦10): Subjects with Remission (percentage): (62%)
  HAMD-17 Remission (Score ≦10): Subjects without Remission (number): 50
  HAMD-17 Remission (Score ≦10): Subjects without Remission (percentage): (38%)
  HAMD-17 reduction from baseline ≧50%: Subjects with Response (number): 90
  HAMD-17 reduction from baseline ≧50%: Subjects with Response (percentage): (68%)
  HAMD-17 reduction from baseline ≧50%: Subjects without Response (number): 43
  HAMD-17 reduction from baseline ≧50%: Subjects without Response (percentage): (32%)
ITT, Double Blind Week 16 LOCF
  HAMD-17 total score, observed Mean: 9.8
  HAMD-17 total score, observed Median: 8.0
ITT, Double Blind Week 16 LOCF (change from Week 8)
  HAMD-17 Mean Difference between TC-5214 and Placebo: 6.00
[3]
  HAMD-17 Remission (Score ≦7): Subjects with Remission (number): 60
  HAMD-17 Remission (Score ≦7): Subjects with Remission (percentage): (45%)
  HAMD-17 Remission (Score ≦7): Subjects without Remission (number): 73
  HAMD-17 Remission (Score ≦7): Subjects without Remission (percentage): (55%)
  HAMD-17 Remission (Score ≦10): Subjects with Remission (number): 85
  HAMD-17 Remission (Score ≦10): Subjects with Remission (percentage): (64%)
  HAMD-17 Remission (Score ≦10): Subjects without Remission (number): 48
  HAMD-17 Remission (Score ≦10): Subjects without Remission (percentage): (36%)
  HAMD-17 reduction from baseline ≧50%: Subjects with Response (number): 89
  HAMD-17 reduction from baseline ≧50%: Subjects with Response (percentage): (67%)
  HAMD-17 reduction from baseline ≧50%: Subjects without Response (number): 44
  HAMD-17 reduction from baseline ≧50%: Subjects without Response (percentage): (33%)
[4]
  HAMD-17 total score, observed Mean: 9.4
  HAMD-17 total score, observed Median: 8.0
[5]
  HAMD-17 Adjusted Mean change: −0.70
  HAMD-17 Mean Difference between TC-5214 and Placebo: −0.13
ITT, Week 8 to Week 16 LOCF
  HAMD-17 Difference vs Placebo + CIT: −6.0
ITT, Weeks 10, 12, 14, and 16, result in words
  HAMD-17 total (raw) score change from baseline compared with placebo by week: statistically significant decreases (improvements)
